The subject of assay [1] is Melanocytes (Mel-Ab cells). As to the kind of experiment: Melanin production inhibiting effect in mouse melanocytes. It is filed as cell-based. The note with it: Mus musculus, Mel-Ab; read-out: Melanin production inhibiting rate (%). How it is done: The melanin production inhibiting effect of the syringaresinol obtained in Example was evaluated using mouse melanocytes. First, melanocytes (Mel-Ab cells) derived from C57BL/6 (treated with Dooley et al.'s method) were cultured under the condition of 37° C. and 5% CO2 in Dulbecco's modified Eagle's medium (DMEM) containing 10% fetal bovine serum, 100 nM 12-O-tetradecanoylphorbol-13-acetate and 1 nM cholera toxin. […] After removing the culture medium and washing with PBS, the cells were dissolved with 1 N sodium hydroxide and absorbance was measured at 400 nm. Melanin production inhibiting rate (%) was calculated according to Equation 2 from the measured absorbance. Melanin production inhibiting rate (%)=100−(Absorbance of test substance) /(Absorbance of control substance)×100 [Equation 2]

Assay [2] is described as follows: Skin whitening effect when applied to UVB-tanned human skin. It is filed as in vivo. The note with it: 1% applied on upper arm after UVB, 10 weeks, 12 male subjects. How it is done: First, opaque tapes having holes of 1.5 cm in diameter were attached on the upper arms of 12 healthy male subjects and UVB of about 1.5-2 times the minimal erythemal dose was irradiated to each subject to induce skin tanning. […] Then, the change was monitored for 10 weeks. The color of the skin was measured with 1-week interval using the CR2002 colorimeter (Minolta, Japan). The change in skin color (ΔL*) between the time when the test substance was applied and the time when the test was completed was calculated according to Equation 3. Skin whitening effect is evaluated by comparing the ΔL* of the part where the test substance was applied with that of the control part. A ΔL* value of about 2 can be interpreted as distinct skin whitening effect and one about 1.5 can be evaluated as positive skin whitening effect.
ΔL*=(L* when test was completed)−(L* when test substance was applied) [Equation 3]

For assay [3], the system named is mushroom-derived tyrosinase. As to the kind of experiment: Tyrosinase activity inhibiting effect (dopachrome formation). It is filed as biochemical. The note with it: 10 ppm, 37° C. 10 minutes. The procedure:
The reaction solution was prepared by adding 500 μL of 0.1 M PBS, 15 μg of L-tyrosine and 50 μL of syringaresinol and then adding distilled water to make the final volume 1500 μL. A solution prepared through the same procedure but with Kojic acid instead of syringaresinol was used as a positive control. The concentration of all the samples used in experiment was set to 10 ppm. After adding 10 units of mushroom-derived tyrosinase to the reaction solution, followed by reaction at 37° C. for 10 minutes, the reaction was stopped by quickly transferring onto ice for 5 minutes. The synthesis rate of dopachrome produced was determined by measuring absorbance at 475 nm and tyrosinase activity inhibiting rate (%) was calculated therefrom.

The nature of assay [4]: Skin whitening effect when orally administered, UV-irradiated brown guinea pig. It is filed as in vivo. The note with it: 1% in feed, 5 weeks, oral. The procedure:
Minimal erythemal dose was measured after irradiating UV to guinea pigs. After grouping the guinea pigs with 10 per each group, UV of the minimal erythemal dose was irradiated once a day, for a total of 3 times. The guinea pigs were allowed free access to feed for 5 weeks. The feed contained 1% syringaresinol or 1% vitamin C (Vit C) as a positive control. Skin pigmentation was measure using a colorimeter in substantially the same manner as in Test Example 6.

Data on three molecules can be found in patent publication US20150290105A1, “COMPOSITION COMPRISING SYRINGARESINOL FOR IMPROVING THE SKIN” (AMOREPACIFIC CORPORATION, priority 2011, published 2015).

In the case of `Oc1ccc(O)cc1` [Hydroquinone, hydroquinone, reference compound], the inhibition at 10 ppm in assay [1] is 58.9%. Also, the “Change in skin brightness (ΔL*)” value in assay [2] was determined as 1.71 ± 0.31.

On to `O=c1cc(CO)occ1O` [Kojic acid, reference compound], for which, in assay [3], the “Tyrosinase activity inhibiting rate (%)” value is recorded as 67.8%.

With `O=C1O[C@H]([C@@H](O)CO)C(O)=C1O` [Vitamin C, vitamin C, reference compound], the “Skin color brightness (ΔL*)” value in assay [4] worked out at 1.48 ± 0.71.
